Measured values from paper PMC4807435 (CPT: Pharmacometrics & Systems Pharmacology, 2016).

Legend:
[1] = Population PK model of unbound and total LPV/RTV in HIV-infected pregnant women; type: in vivo, human; details: for Total body clearance CL/F, back-calculated, median (range): intrinsic clearance × unbound fraction
LPV intrinsic clearance [2] = test: LPV-RTV interaction modeling; type: in vivo, human
[3] = 2nd trimester vs. pp; capsules; ref Mirochnick et al., JAIDS, 2008 (9); cited from earlier work
LPV intrinsic clearance [4] = details: same interaction function form; ref Wang et al., 32; cited from earlier work
[5] = final model, 500 bootstrap replicates
[6] = final model, 500 bootstrap replicates, weight-scaled model (per 70kg)

Apparent intrinsic clearance CLu/F, post hoc estimate, median (range) ([1]; Visit 1 (20–24 weeks))	Total body clearance CL/F, back-calculated, median (range) ([1]; Visit 1 (20–24 weeks))	Total body clearance CL/F, back-calculated, median (range) ([1]; Visit 2 (30 weeks))	Apparent intrinsic clearance CLu/F, post hoc estimate, median (range) ([1]; Visit 3 (32 weeks))	Total body clearance CL/F, back-calculated, median (range) ([1]; Visit 3 (32 weeks))	Apparent intrinsic clearance CLu/F, post hoc estimate, median (range) ([1]; Visit 4 (8 weeks postpartum))	Total body clearance CL/F, back-calculated, median (range) ([1]; Visit 4 (8 weeks postpartum))	Interindividual variability of CLu/F, bootstrap estimates (95% CI) ([1]; final model)	Interindividual variability of CLu/F, estimate ([1]; final model)	Interindividual variability of fu, bootstrap estimates (95% CI) ([1]; final model)	Interindividual variability of fu, estimate ([1]; final model)	Interoccasion variability of fu, bootstrap estimates (95% CI) ([1]; final model)	Interoccasion variability of fu, estimate ([1]; final model)	Interoccasion variability of ka, estimate ([1]; final model)	Lag time, estimate ([1]; final model)	ka, estimate ([1]; final model)	Lag time, bootstrap estimates (95% CI) [1, 5]	ka, bootstrap estimates (95% CI) [1, 5]	SMILES	other results
232 (226, 237) L/hr	5.92 (5.22, 7.22) L/hr	6.69 (5.73, 8.21) L/hr	269 (263, 276) L/hr	6.94 (5.90, 8.46) L/hr	167 (165, 168) L/hr	4.28 (3.65, 5.25) L/hr	2.10 (0.32, 11.4) %CV	2.70 %CV	3.81 (0.32, 10.3) %CV	4.60 %CV	9.98 (4.68, 13.3) %CV	10.0 %CV	138 %CV	1.77 h	1.07 h⁻¹	1.75 (1.25, 1.93) h	0.906 (0.582, 1.78) h^−1	Cc1cccc(C)c1OCC(=O)N[C@@H](Cc1ccccc1)[C@@H](O)C[C@H](Cc1ccccc1)NC(=O)[C@H](C(C)C)N1CCCNC1=O [LPV, lopinavir]	Increase of median post hoc CLu/F compared to 8 weeks postpartum ([1]; 20–24 weeks of gestation (22 weeks elsewhere in the source)): 38%; Increase of median post hoc CLu/F compared to 8 weeks postpartum ([1]; 30 weeks of gestation): 56%; Increase of median post hoc CLu/F compared to 8 weeks postpartum ([1]; 32 weeks of gestation): 61%; CL/F, estimate ([1]; CL/F = fu × CLu/F): 4.31 L/h; V/F, estimate ([1]; V/F = fu × Vu/F): 88.5 L; Apparent intrinsic clearance CLu/F, post hoc estimate, median (range) ([1]; Visit 2 (30 weeks)): 261 (255, 264) L/hr; fraction unbound ([1]; female, human, plasma, oral, fu, estimate, final model, unbound fraction): 0.0258; Interoccasion variability of CLu/F, bootstrap estimates (95% CI) ([1]; final model): 23.4 (16.1, 29.7) %CV; Interoccasion variability of CLu/F, estimate ([1]; final model): 24.7 %CV; Vu/F, estimate ([1]; final model): 3430 L; CLu/F, bootstrap estimates (95% CI) [1, 5]: 167 (136, 202) L/h; Coefficient of gestational week impact on CLu/F, bootstrap estimates (95% CI) [1, 5]: 0.0148 (0.00835, 0.0223); Vu/F, bootstrap estimates (95% CI) [1, 5]: 3325 (2655, 4256) L; CLu/F, estimate ([1]; final model, population value at gestational week zero (postpartum reference)): 167 L/h; Coefficient of gestational week impact on CLu/F, estimate ([1]; individual final model, CLu/F = θ × e^(coef×WEEK)): 0.0148; Unbound fraction, pregnancy vs postpartum ([1]; population PK covariate analysis): not significantly different; Difference among unbound AUC fractions across the four study visits ([1]; post hoc repeated-measures ANOVA, P > 0.05): no significant findings; LPV clearance estimate (CLu/F) (LPV intrinsic clearance [2]; Basic joint model: LPV and RTV individual final models without interactions): 167 L/h; Decrease in AUC [3]: 52%
273 (161, 421) L/hr	38.2 (26.0, 42.1) L/hr	52.3 (33.6, 74.1) L/hr	357 (191, 508) L/hr	58.5 (32.6, 93.6) L/hr	178 (101, 257) L/hr	26.9 (16.6, 37.5) L/hr	10.6 (1.92, 19.0) %CV	8.5 %CV	23.3 (12.2, 34.4) %CV	24.4 %CV	20.8 (12.6, 28.6) %CV	23.5 %CV	141.8 %CV	1.86 h	1.01 h⁻¹	1.86 (1.67, 1.94) h	1.01 (0.340, 2.00) h^−1	CC(C)c1nc(CN(C)C(=O)N[C@H](C(=O)N[C@@H](Cc2ccccc2)C[C@H](O)[C@H](Cc2ccccc2)NC(=O)OCc2cncs2)C(C)C)cs1 [RTV, ritonavir]	Interaction value (LPV-RTV interaction coefficient) (LPV intrinsic clearance [4]): 0.00064; Interoccasion variability of F, bootstrap estimates (95% CI) ([1]; final model): 30.9 (17.1, 46.1) %CV; Interoccasion variability of F, estimate ([1]; final model): 36.2 %CV; Interoccasion variability of ka, bootstrap estimates (95% CI) ([1]; final model): 142 (81.5, 201) %CV; CLu/F, bootstrap estimates (95% CI) [1, 6]: 157 (120, 202) L/h; Vu/F, bootstrap estimates (95% CI) [1, 6]: 1630 (1040, 2100) L; Interaction parameter (coef) (LPV intrinsic clearance [2]; Model 6, CRTV exponential model, unbound RTV concentration): 0.0028; Interaction coefficient in terms of total RTV concentration (LPV intrinsic clearance [2]; exponential interaction function): 0.00041
